PMC8949931, “cADPR Does Not Activate TRPM2” (International Journal of Molecular Sciences, 2022)

Legend:
[1] = biological target: T1, drTRPM2 (TRPM2 from zebrafish) (Danio rerio, UniProt A0A0R4IMY7); assay: isothermal titration calorimetry (ITC), purified domain, […] °C; type: binding
T1 construct: isolated MHR1/2 domain, residues 1-419 of drTRPM2, N-terminal His6-tag
T1 sequence (A0A0R4IMY7 1-419): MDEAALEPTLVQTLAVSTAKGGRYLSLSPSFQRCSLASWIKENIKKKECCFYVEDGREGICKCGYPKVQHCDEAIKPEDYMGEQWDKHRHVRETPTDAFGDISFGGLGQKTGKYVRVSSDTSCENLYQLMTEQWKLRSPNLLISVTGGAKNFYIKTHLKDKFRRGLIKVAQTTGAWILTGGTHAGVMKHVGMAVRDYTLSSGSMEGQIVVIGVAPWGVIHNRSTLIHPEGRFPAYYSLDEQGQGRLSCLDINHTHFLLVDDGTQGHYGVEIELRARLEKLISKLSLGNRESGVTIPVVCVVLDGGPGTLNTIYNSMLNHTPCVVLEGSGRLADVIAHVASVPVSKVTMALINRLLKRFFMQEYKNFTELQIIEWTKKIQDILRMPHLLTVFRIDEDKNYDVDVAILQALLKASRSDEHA

human TRPM2 = biological target: T2, human TRPM2 (Homo sapiens, UniProt O94759); assay: whole-cell patch clamp, […] coinfused with […] ADPR; type: cell-based
T2 construct: full-length channel stably expressed in HEK293 cells
T2 sequence (O94759 whole entry, the tested form may be a part): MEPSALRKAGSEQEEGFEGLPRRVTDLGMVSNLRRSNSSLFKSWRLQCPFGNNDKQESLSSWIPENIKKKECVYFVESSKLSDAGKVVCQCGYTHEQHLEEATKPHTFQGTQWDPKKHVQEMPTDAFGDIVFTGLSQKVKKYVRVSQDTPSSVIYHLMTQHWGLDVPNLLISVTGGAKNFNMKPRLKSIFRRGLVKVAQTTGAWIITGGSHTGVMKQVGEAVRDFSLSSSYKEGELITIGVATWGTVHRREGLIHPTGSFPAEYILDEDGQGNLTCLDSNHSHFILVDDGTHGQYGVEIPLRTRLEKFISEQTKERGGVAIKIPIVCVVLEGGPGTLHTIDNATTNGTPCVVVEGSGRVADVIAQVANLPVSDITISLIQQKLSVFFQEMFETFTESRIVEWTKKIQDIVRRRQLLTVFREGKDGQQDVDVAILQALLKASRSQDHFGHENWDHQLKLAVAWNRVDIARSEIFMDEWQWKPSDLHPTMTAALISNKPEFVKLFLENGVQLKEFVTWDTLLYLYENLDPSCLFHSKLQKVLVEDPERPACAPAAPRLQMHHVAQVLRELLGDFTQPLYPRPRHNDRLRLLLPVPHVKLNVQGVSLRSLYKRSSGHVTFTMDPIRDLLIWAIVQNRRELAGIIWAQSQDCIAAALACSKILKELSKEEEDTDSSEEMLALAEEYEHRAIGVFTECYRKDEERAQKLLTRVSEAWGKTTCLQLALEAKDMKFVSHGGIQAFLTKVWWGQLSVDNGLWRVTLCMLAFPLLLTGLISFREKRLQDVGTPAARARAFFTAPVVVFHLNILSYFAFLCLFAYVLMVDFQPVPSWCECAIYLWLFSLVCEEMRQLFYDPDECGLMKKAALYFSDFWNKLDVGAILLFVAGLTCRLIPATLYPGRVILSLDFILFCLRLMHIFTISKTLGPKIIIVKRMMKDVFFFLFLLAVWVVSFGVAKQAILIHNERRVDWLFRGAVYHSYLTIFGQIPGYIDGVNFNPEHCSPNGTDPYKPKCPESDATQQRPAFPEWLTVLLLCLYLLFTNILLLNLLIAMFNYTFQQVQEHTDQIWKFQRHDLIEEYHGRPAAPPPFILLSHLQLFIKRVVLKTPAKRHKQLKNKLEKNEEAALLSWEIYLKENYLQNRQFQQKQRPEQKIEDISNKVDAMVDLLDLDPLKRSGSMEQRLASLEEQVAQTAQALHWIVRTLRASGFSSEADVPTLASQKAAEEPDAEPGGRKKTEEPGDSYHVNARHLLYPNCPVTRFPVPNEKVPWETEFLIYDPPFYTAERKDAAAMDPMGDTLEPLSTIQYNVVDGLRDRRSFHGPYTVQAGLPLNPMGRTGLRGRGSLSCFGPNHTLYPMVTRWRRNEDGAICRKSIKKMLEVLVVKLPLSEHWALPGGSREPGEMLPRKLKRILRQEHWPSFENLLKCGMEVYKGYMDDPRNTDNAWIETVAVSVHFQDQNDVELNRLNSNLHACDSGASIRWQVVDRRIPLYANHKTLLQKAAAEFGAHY

SMILES	Kd [1] [µM]	whole-cell patch clamp, 1 mM coinfused with 125 μM ADPR (human TRPM2)
Nc1ncnc2c1nc(Br)n2[C@@H]1O[C@H](COP(=O)(O)OP(=O)(O)OC[C@H]2OC(O)[C@H](O)[C@@H]2O)[C@@H](O)[C@H]1O (stereo partly drawn) [8-Br-ADPR]	1.4	8-Br-ADPR and 8-Br-cADPR reduce the ADPR-induced current in TRPM2-expressing HEK293 cells
Nc1ncnc2c1ncn2[C@@H]1O[C@H](COP(=O)(O)OP(=O)(O)OC[C@H]2OC(O)[C@H](O)[C@@H]2O)[C@@H](O)[C@H]1O (stereo partly drawn) [ADPR]	2.2	
